This is an account of results in BindingDB's records for doi:10.1016/s0960-894x(01)00219-0 (Research Biomet. Glaxo Wellcome Medicines Research Centre, 2001).

SMILES strings stand for the structures.

Chain of Receptor tyrosine-protein kinase erbB-2 (P06494 whole entry): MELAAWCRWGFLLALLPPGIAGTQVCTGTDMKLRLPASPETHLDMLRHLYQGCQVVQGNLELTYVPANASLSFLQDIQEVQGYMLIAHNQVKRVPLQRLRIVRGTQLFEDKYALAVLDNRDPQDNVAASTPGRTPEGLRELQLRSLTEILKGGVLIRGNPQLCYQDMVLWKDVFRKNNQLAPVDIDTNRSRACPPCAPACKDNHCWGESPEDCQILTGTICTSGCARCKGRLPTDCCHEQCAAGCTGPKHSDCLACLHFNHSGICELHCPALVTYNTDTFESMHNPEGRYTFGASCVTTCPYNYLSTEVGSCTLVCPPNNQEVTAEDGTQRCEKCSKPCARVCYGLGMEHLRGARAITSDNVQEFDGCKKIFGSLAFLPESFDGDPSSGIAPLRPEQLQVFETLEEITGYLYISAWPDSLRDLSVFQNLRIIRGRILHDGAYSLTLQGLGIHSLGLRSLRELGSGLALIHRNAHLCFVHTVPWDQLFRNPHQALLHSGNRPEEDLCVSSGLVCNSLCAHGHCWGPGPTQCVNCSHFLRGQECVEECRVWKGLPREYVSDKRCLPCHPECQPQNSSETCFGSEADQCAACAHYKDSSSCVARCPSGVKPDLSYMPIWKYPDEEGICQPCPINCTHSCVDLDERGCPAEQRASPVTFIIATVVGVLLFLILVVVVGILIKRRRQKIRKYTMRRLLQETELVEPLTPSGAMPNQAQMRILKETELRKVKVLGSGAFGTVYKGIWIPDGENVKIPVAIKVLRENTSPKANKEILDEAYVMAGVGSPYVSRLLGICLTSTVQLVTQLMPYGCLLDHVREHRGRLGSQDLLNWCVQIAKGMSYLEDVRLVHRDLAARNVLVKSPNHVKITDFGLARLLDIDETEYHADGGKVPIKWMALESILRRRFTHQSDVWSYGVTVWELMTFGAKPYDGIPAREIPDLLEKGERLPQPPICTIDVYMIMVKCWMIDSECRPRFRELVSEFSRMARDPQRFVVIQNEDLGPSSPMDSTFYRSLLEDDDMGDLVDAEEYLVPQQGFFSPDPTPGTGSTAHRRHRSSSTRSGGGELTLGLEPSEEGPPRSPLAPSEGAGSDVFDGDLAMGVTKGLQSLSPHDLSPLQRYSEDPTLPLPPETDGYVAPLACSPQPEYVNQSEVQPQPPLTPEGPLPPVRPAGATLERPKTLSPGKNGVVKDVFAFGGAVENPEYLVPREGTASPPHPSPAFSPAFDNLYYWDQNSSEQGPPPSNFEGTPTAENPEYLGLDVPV

Molecular target in the first assay: not listed separately
The assay is described as follows: Inhibition of erbB2 overexpressing HB4a.e5.2 cell proliferation.
Take `CN(C)c1cc2c(Nc3ccc4c(cnn4Cc4ccccc4)c3)ncnc2cn1` [N*4*-(1-Benzyl-1H-indazol-5-yl)-N*6*,N*6*-dimethyl-pyrido[3,4-d]pyrimidine-4,6-diamine]: the IC50 is 97 nM.

The next assay addresses Receptor tyrosine-protein kinase erbB-2 (Rattus norvegicus, UniProt P06494). The assay is described as follows: ChEBML_194950. An excerpt:
Inhibition of rat Receptor protein-tyrosine kinase erbB2
In turn, `CN(C)c1cc2c(Nc3ccc4c(cnn4Cc4ccccc4)c3)ncnc2cn1` [N*4*-(1-Benzyl-1H-indazol-5-yl)-N*6*,N*6*-dimethyl-pyrido[3,4-d]pyrimidine-4,6-diamine] yielded an IC50 of 390 nM.

Molecular target in a further assay: not listed separately
The assay is described as follows: Inhibition of c-erbB-2 overexpressing HB4a cell proliferation.
In turn, `COc1cc2ncnc(Nc3ccc4nn(Cc5ccccc5)cc4c3)c2cc1OC` [(2-Benzyl-2H-indazol-5-yl)-(6,7-dimethoxy-quinazolin-4-yl)-amine] showed an IC50 of 3100 nM.
Molecule `COc1cc2ncnc(Nc3ccc4c(cnn4Cc4ccccc4)c3)c2cc1OC` [(1-Benzyl-1H-indazol-5-yl)-(6,7-dimethoxy-quinazolin-4-yl)-amine] gave an IC50 of 290 nM.
`COc1cc2ncnc(Nc3ccc4nc(Cc5ccccc5)[nH]c4c3)c2cc1OC` [(2-Benzyl-1H-benzoimidazol-5-yl)-(6,7-dimethoxy-quinazolin-4-yl)-amine]: the IC50 was 1100 nM.
For `c1ccc(Cn2cnc3ccc(Nc4ncnc5ccccc45)cc32)cc1` [(3-Benzyl-3H-benzoimidazol-5-yl)-quinazolin-4-yl-amine], half-maximal inhibition (IC50) required 21000 nM.
On the same count and under the same terms, the figure for `Nc1cc2c(Nc3ccc4c(cnn4Cc4ccccc4)c3)ncnc2cn1` [N*4*-(1-Benzyl-1H-indazol-5-yl)-pyrido[3,4-d]pyrimidine-4,6-diamine] is 97 nM; for `c1ccc(Cn2cnc3cc(Nc4ncnc5ccccc45)ccc32)cc1` [(1-Benzyl-1H-benzoimidazol-5-yl)-quinazolin-4-yl-amine] it is 27000 nM; for `c1ccc(Cc2nc3ccc(Nc4ncnc5ccccc45)cc3[nH]2)cc1` [(2-Benzyl-1H-benzoimidazol-5-yl)-quinazolin-4-yl-amine] it is 1300 nM.
For `c1ccc(Cn2ccc3cc(Nc4ncnc5ccccc45)ccc32)cc1` [(1-Benzyl-1H-indol-5-yl)-quinazolin-4-yl-amine], the midpoint of inhibition, the IC50, lay at 1300 nM.
In the case of `Nc1cc2c(Nc3ccc4nc(Cc5ccccc5)[nH]c4c3)ncnc2cn1` [N*4*-(2-Benzyl-1H-benzoimidazol-5-yl)-pyrido[3,4-d]pyrimidine-4,6-diamine], the IC50 turned out to be 1860 nM.
In turn, `COc1cc2ncnc(Nc3ccc4c(ccn4Cc4ccccc4)c3)c2cc1OC` [(1-Benzyl-1H-indol-5-yl)-(6,7-dimethoxy-quinazolin-4-yl)-amine] displayed an IC50 of 350 nM.

Molecular target in another assay: not listed separately
Put plainly: Inhibition of erbB2 overexpressing BT 474 cell proliferation.
`CN(C)c1cc2c(Nc3ccc4c(cnn4Cc4ccccc4)c3)ncnc2cn1` [N*4*-(1-Benzyl-1H-indazol-5-yl)-N*6*,N*6*-dimethyl-pyrido[3,4-d]pyrimidine-4,6-diamine]: the IC50 stood at 70 nM.
